Source: patent US7078401B2, “Thiophenylaminoimidazolines as IP antagonists” (Roche Palo Alto LLC, priority 2003, dated 2006)
Counter-ions that a name gives are not always drawn.

melting point [°C]	Compound
149 to 150	COc1ccc(Sc2ccc(NC3=NCCN3)cc2)cc1 (as salt: hydrochloride) [Compound 5, (4,5-Dihydro-1H-imidazol-2-yl)-[4-(4-methoxy-phenylsulfanyl)-phenyl]-amine]
127 to 130	Clc1ccc(Sc2ccc(CNC3=NCCN3)cc2)cc1 (as salt: hydrochloride) [Compound 9, [4-(4-Chloro-phenylsulfanyl)-benzyl]-(4,5-dihydro-1H-imidazol-2-yl)-amine]
148 to 152	Clc1ccc(Sc2ccc(NC3=NCCCC3)cc2)cc1 (as salt: hydrochloride) [Compound 73, [4-(4-Chloro-phenylsulfanyl)-phenyl]-(3,4,5,6-tetrahydro-pyridin-2-yl)-amine]
140 to 141	COc1ccc(Sc2ccc(NC(=N)N)cc2)cc1 [Example 2, N-[4-(4-Methoxy-phenylsulfanyl)-phenyl]-guanidine]
